Experimental findings from a compilation of properties of binary mixtures (doi:10.1016/j.molliq.2022.121176) are described below.

The nature of this data set: xn = mol fraction of the nth substance listed. As to conditions: 298 K, 101.3 kPa.

`II` + CCCCCCCCCCCC[n+]1ccn(C)c1.[I-] registered an electrical conductivity (x2 = 0.25) of 1.39 S/m.

Regarding `II` + CCCCCC[n+]1ccn(C)c1.[I-], the electrical conductivity reads like this: (x2 = 0.2) 3.89 S/m; (x2 = 0.25) 2.93 S/m; (x2 = 0.333) 1.96 S/m; (x2 = 0.5) 0.429 S/m.

`II` + CCCC[n+]1ccn(C)c1.[I-]: the electrical conductivity is, setting by setting: (x2 = 0.2) 5.13 S/m; (x2 = 0.25) 4.31 S/m; (x2 = 0.5) 0.735 S/m.

Under “x1 = 1”, `CCCCCC[n+]1ccn(C)c1.[I-]` + II showed an electrical conductivity of 0.0186 S/m.

On to `CCCC[n+]1ccn(C)c1.[I-]` + II, for which the electrical conductivity (x1 = 1) was 0.035 S/m.

Consider `CC[n+]1ccn(C)c1.[I-]` + II, for which the electrical conductivity turned out to be 7.17 S/m (x1 = 0.2), 6.5 S/m (x1 = 0.25) and 5.08 S/m (x1 = 0.333). Where the note is “x1 = 0.25”, this compound returned a viscosity of 18.8 mPa·s.

As for `C=CCn1cc[n+](C)c1.[I-]` + II, the electrical conductivity was found to be 4.07 S/m (x1 = 0.2) and 3.82 S/m (x1 = 0.333).

As a reminder, the viscosity is the internal friction of a fluid under shear. Read a high viscosity as sluggish flow.
